Laboratory results reported in paper PMC10860144, “Exploring the Dispersion and Electrostatic Components in Arene–Arene Interactions between Ligands and G4 DNA to Develop G4-Ligands” (Journal of Medicinal Chemistry, 2024).
Converted amounts (≈) assume the structure as drawn. “And” between values parts separate entries of the source, which are not always exact repeats. Equal values may be shown once.

Key:
[1] = molecular target: c-MYC Pu22 G4 DNA; test: Microscale thermophoresis (MST), c-MYC Pu22 G4 DNA; format: binding, human; conditions: Cy5-labeled c-MYC Pu22 G4 DNA 25 nM; pH 7.4, 100 mM KCl; read-out: apparent Kd (MST)
Experimental: To evaluate the apparent binding affinities (Kd) for the compound series, we next used microscale thermophoresis (MST) with fluorescently labeled c-MYC Pu22 G4 DNA (Table S1). Overall, the measured MST binding results for compounds 2–11 corresponded well with the results from the FRET assay (Figures 2B and S3).
5′-Cy5 labeled G4 DNAs for this study were purchased from Eurofins Genomics. Stock solutions were prepared in water at 100 μM concentration. The sequences used are listed in Supporting Information Table S1. The G4 DNA sequences were folded in KCl buffer (10 mM phosphate, 100 mM KCl, pH 7.4) by heating at 95 °C for 5 min and then cooling to room temperature. All the experiments were performed in 10 mM phosphate pH 7.4, 100 mM KCl, and 0.05% Tween20. The labeled DNA concentration is held constant at 25 nM, and ligand concentration is varied depending on ligands Kd (16 1:3 dilutions). The samples were loaded into standard MST graded glass capillaries and initial fluorescence intensity of the capillary was measured using Monolith NT.115 (Nano Temper, Germany) with 20% LED power. The change in fluorescence with ligand’s concentrations were plotted in Excel and fitted through nonlinear equation to obtain the binding constants. […]
Microscale Thermophoresis (MST)
5'- Cy5 labelled G4 DNAs for this study were purchased from Eurofins Genomics. Stock solutions were prepared in water at […] concentration. The sequences used are listed in supplementary Table S1. The G4 DNA sequences were folded in KCl buffer (10 mM phosphate, 100 mM KCl, pH 7.4) by heating at 95 °C for 5 min and then cooling to room temperature. All the experiments were performed in 10 mM phosphate pH 7.4, 100 mM KCl, 0.05% Tween20. The labelled DNA concentration is held constant at 25 nM and ligand concentration is varied depending on ligands Kd (sixteen 1:3 dilutions). The samples were loaded into standard MST graded glass capillaries and initial fluorescence intensity of the capillary were measured using Monolith NT.115 (Nano Temper, Germany) with 20% LED power. The change in fluorescence with ligand's concentrations were plotted in Excel and fitted through non-linear equation to obtain the binding constants.
(1 picture or pasted object on this page, not shown here)

[2] = system: G4 structure on DNA template (PEPu24T); test: Taq polymerase stop (primer extension) assay, G4 template; format: biochemical; conditions: compound 0.24 μM; compared to DMSO control
Excerpt: To challenge all the synthesized compounds (2–11 and 25–29) in a more intricate context, we conducted a Taq polymerase stop assay to evaluate their capacity to impede DNA synthesis through G4 stabilization. In this assay, we compared the progress of the Taq DNA polymerase along two distinct DNA templates: one with a G4 structure (Figure 5) and another serving as a non-G4 control (Figure S21). If an external species (e.g., G4 ligand) binds and stabilizes the G4 structure, the polymerase will be partially halted. The extent of this DNA polymerase stalling is dependent on the ability of the compound to stabilize the G4 on the DNA template. The increased G4 stabilization can be detected as a reduction in the amount of newly synthesized DNA that has reached the end of the DNA template (full-length/end-product). Analysis of these shorter terminated DNA products will give information about the precise location of the DNA polymerase stalling with a single nucleotide resolution. If the ligand imposes little to no stabilization or binding, the G4 is readily resolved by the DNA polymerase, and no difference in the amount of DNA end-product can therefore be expected upon the addition of the compound.
Templates for the primer extension assay were created by annealing 25 nt TET labeled primer (1 μM final concentration) to either PEPu24T or a mutated sequence not forming a G4, PEPu24T mut, (1.25 μM final concentration) in 100 mM KCl by heating to 95 °C for 5 min and slowly cooling to room temperature. […] Compounds were added in the indicated concentration and incubated on ice for 10 min before starting the reaction by adding dNTPs (100 μM final concentration) to the reaction and transferring it to 37 °C. Reactions were stopped after 15 min by addition of 10 μL of formamide loading buffer (0.5% SDS, 25 mM EDTA, 95% v/v formamide and xylene-cyanol). Samples were then loaded on a 12% polyacrylamide gel containing 7 M urea and 25% formamide and imaged using an Amersham Typhoon. The images were quantified using ImageJ 1.53e software, and the percentage of full-length product compared to a sample without compound was calculated.
Templates for the primer extension assay were created by annealing 25nt TET labelled primer (1 µM final concentration) to either PEPu24T or a mutated sequence not forming a G4, PEPu24T mut, (1.25 µM final concentration) in 100 mM KCl by heating to 95 °C for 5 min and slowly cooling to room temperature. The reaction mixture (10 µl) contained 1X Taq Buffer with KCl (10 mM Tris-HCl pH 8.8, 50 mM KCl, detergent), 25 mM MgCl2, […]
[…] Compounds were added in the indicated concentration and incubated on ice for 10 min before starting the reaction by adding dNTPs (100 µM final concentration) to the reaction and transferring it to 37 °C. Reactions were stopped after 15 min by addition of 10 µl of formamide loading buffer (0,5% SDS, 25 mM EDTA, 95% v/v formamide and xylene-cyanol). Samples were then loaded on a 12% polyacrylamide gel containing 7 M urea and 25% formamide and imaged using an Amersham™ Typhoon™.
The images were quantified using ImageJ 1.53e software and the percentage of full-length product compared to a sample without compound was calculated. […]

[3] = logD at pH 7.4; format: physicochemical
Experimental: (§1) Physicochemical properties
(§2) The Physicochemical profiling (LogD, Solubility, Caco-2 cell permeability) was performed as previously
(§3) described.8 Cell viability was performed as described below.
(§4) Table S2. Pharmacokinetic Properties
(§5) Compound Structure logD, Solubility, Rat hepsa Human mics b

[4] = Solubility at pH 7.4; format: physicochemical
Experimental: as §1, §2, §3, §4, §5

[5] = Intrinsic clearance in rat hepatocytes; format: in vitro ADME
Experimental: (§6) All compounds (2–11, 25–29) were screened for their logD and solubility at pH 7.4 and for their intrinsic clearance in rat hepatocytes and human microsomes (Table S2). […] Replacing the basic amine side chain to a methyl substituent in the quinazolines (25–29) still retained good solubility (134 to over 1000 μM) but increased clearance in both rat hepatocytes and human microsomes. The logD was low for compounds with a basic amine side chain (2–11) and increased slightly when the amine was replaced with a methyl (25–29). As expected, additional substituents also affected the logD with the chloro-substituents increasing logD the most.
(§7) a Intrinsic clearance in rat hepatocytes ((μL/min)/10^6 cells).b Intrinsic clearance in human microsomes (μL/min/mg). […]

[6] = Intrinsic clearance in human microsomes; format: in vitro ADME; conditions: read-out: Human mics: intrinsic clearance in human microsomes
Experimental: as §6, §7

[7] = molecular target: Pu24T c-MYC G4 structure; test: Kd for binding to the Pu24T c-MYC G4 structure (supplementary CSV); set-up: species or system human
Experimental: 5′-Cy5 labeled G4 DNAs for this study were purchased from Eurofins Genomics. Stock solutions were prepared in water at 100 μM concentration. The sequences used are listed in Supporting Information Table S1. The G4 DNA sequences were folded in KCl buffer (10 mM phosphate, 100 mM KCl, pH 7.4) by heating at 95 °C for 5 min and then cooling to room temperature. All the experiments were performed in 10 mM phosphate pH 7.4, 100 mM KCl, and 0.05% Tween20. The labeled DNA concentration is held constant at 25 nM, and ligand concentration is varied depending on ligands Kd (16 1:3 dilutions). The samples were loaded into standard MST graded glass capillaries and initial fluorescence intensity of the capillary was measured using Monolith NT.115 (Nano Temper, Germany) with 20% LED power. The change in fluorescence with ligand’s concentrations were plotted in Excel and fitted through nonlinear equation to obtain the binding constants.
The Supporting Information is available free of charge at https://pubs.acs.org/doi/10.1021/acs.jmedchem.3c02127. • Experimental procedures and data; assay data, computational results, and all cell data; NMR (^1H and ^13C) spectra for all compounds (with the exception of a few intermediates); and HPLC UV traces for the final compounds (PDF) • Molecular formula strings and Kd values for binding to the Pu24T c-MYC G4 structure (CSV)

Row | SMILES | Kd [1] | full-length DNA product [2] | logD [3] | solubility [4] [µM] | Rat heps: intrinsic clearance in rat hepatocytes [5] | microsomal CLint [6] [µL/min/mg] | Kd [7] [µM]
1 | Cc1cc(NCCCN(C)C)nc(Nc2nc(C)c3ccccc3n2)n1 [Compound 3, N4-(3-(Dimethylamino)propyl)-6-methyl-N2-(4-methylquinazolin-2-yl)pyrimidine-2,4-diamine] | 0.15 µM | ~45% | 0 | 858 (≈ 302 µg/mL) | 4 (μL/min)/106 cells | < 3 | 0.15 ± 0.01
2 | Cc1cc(NCCCN(C)C)nc(Nc2nc3cc(Cl)c(Cl)cc3nc2C)n1 [Compound 11, N2-(6,7-Dichloro-3-methylquinoxalin-2-yl)-N4-(3-(dimethylamino)propyl)-6-methylpyrimidine-2,4-diamine] | 3.9 µM and 3.85 µM | – | 2.3 | 646 (≈ 272 µg/mL) | 6 (μL/min)/106 cells | < 3 | 3.9 ± 0.7
3 | Cc1cc(NCCCN(C)C)nc(Nc2nc(C)c3cc(Cl)ccc3n2)n1 [Compound 7, N2-(6-Chloro-4-methylquinazolin-2-yl)-N4-(3-(dimethylamino)propyl)-6-methylpyrimidine-2,4-diamine] | 0.17 µM | about 30% | 0.9 | 990 (≈ 382 µg/mL) | 1 (μL/min)/106 cells | < 3 | 0.17 ± 0.02
4 | Cc1cc(NCCCN(C)C)nc(Nc2nc3ccccc3nc2C)n1 [Compound 9, N4-(3-(Dimethylamino)propyl)-6-methyl-N2-(3-methylquinoxalin-2-yl)pyrimidine-2,4-diamine] | > 10 µM | – | 0.5 | 871 (≈ 306 µg/mL) | 17 (μL/min)/106 cells | < 3 | > 10
5 | Cc1ccc2nc(Nc3nc(C)cc(C)n3)nc(C)c2c1 [Compound 26, N-(4,6-Dimethylpyrimidin-2-yl)-4,6-dimethylquinazolin-2-amine] | 3.3 µM | – | 2.2 | 951 (≈ 266 µg/mL) | 20 (μL/min)/106 cells | 84 | 3.3 ± 0.3

Next, values leading:

Row | Kd [1] | full-length DNA product [2] | logD [3] | solubility [4] [µM] | Rat heps: intrinsic clearance in rat hepatocytes [5] | microsomal CLint [6] [µL/min/mg] | Kd [7] [µM] | SMILES
6 | 3.6 µM | – | 1.9 | 271 (≈ 80 µg/mL) | 34 (μL/min)/106 cells | 22 | 3.6 ± 0.7 | COc1ccc2nc(Nc3nc(C)cc(C)n3)nc(C)c2c1 [Compound 28, N-(4,6-Dimethylpyrimidin-2-yl)-6-methoxy-4-methylquinazolin-2-amine]
7 | 2.3 µM and 2.26 µM | – | 1.4 | 838 (≈ 318 µg/mL) | 19 (μL/min)/106 cells | < 3 | 2.3 ± 0.5 | Cc1cc(NCCCN(C)C)nc(Nc2nc3cc(C)c(C)cc3nc2C)n1 [Compound 10, N4-(3-(Dimethylamino)propyl)-6-methyl-N2-(3,6,7-trimethylquinoxalin-2-yl)pyrimidine-2,4-diamine]
8 | > 15 µM | – | 1.8 | > 1000 | 17 (μL/min)/106 cells | 71 | > 15 | Cc1cc(C)nc(Nc2nc(C)c3ccccc3n2)n1 [Compound 25, N-(4,6-Dimethylpyrimidin-2-yl)-4-methylquinazolin-2-amine]
9 | 0.09 µM | about 30% | 0.1 | > 1000 | < 1 (μL/min)/106 cells | < 3 | 0.09 ± 0.01 | COc1ccc2nc(Nc3nc(C)cc(NCCCN(C)C)n3)nc(C)c2c1 [Compound 6, N4-(3-(Dimethylamino)propyl)-N2-(6-methoxy-4-methylquinazolin-2-yl)-6-methylpyrimidine-2,4-diamine]
10 | 0.1 µM | about 30% | 0.4 | > 1000 | < 1 (μL/min)/106 cells | < 3 | 0.1 ± 0.01 | Cc1ccc2nc(Nc3nc(C)cc(NCCCN(C)C)n3)nc(C)c2c1 [Compound 4, N4-(3-(Dimethylamino)propyl)-N2-(4,6-dimethylquinazolin-2-yl)-6-methylpyrimidine-2,4-diamine]
11 | > 15 µM | – | 2.4 | 134 (≈ 40.2 µg/mL) | 9 (μL/min)/106 cells | 56 | > 15 | Cc1cc(C)nc(Nc2nc(C)c3cc(Cl)ccc3n2)n1 [Compound 29, 6-Chloro-N-(4,6-dimethylpyrimidin-2-yl)-4-methylquinazolin-2-amine]
